From publication PMC9934367, “Functional impact of subunit composition and compensation on Drosophila melanogaster nicotinic receptors–targets of neonicotinoids” (PLOS Genetics, 2023)
Read-outs that look alike come from different tables or passages of the source.

Experiments:
Dα1/Dα3/Dβ1/Dβ2 nAChR = biological target: T1, Dα1/Dα3/Dβ1/Dβ2 nAChR (Drosophila melanogaster, UniProt P04755+P09478+P25162+Q9W3G6); assay: cell-based; parameters: species or system D. melanogaster; conditions: mean ± standard error (n = 5)
T1 construct: Dα1 (NP_524481); Dβ1 (NP_523927); Dβ2 (NP_524483); expressed in transfected cells; host or cells: Xenopus laevis oocytes (cRNA injection)
Procedure: (§1) cDNAs of the nAChR subunits and co-factors were cloned into pcDNA3.1 (+) vector (Thermo Fisher Scientific). The accession numbers of the nAChR subunits and cofactors are as follows: Dα1 (NP_524481), Dα2 (NP_524482), Dα3 (NP_525079), Dα4 (CAB77445), Dβ1 (NP_523927), Dβ2 (NP_524483), Dβ3 (NP_525098), DmRIC-3 (CAP16647), DmUNC-50 (NP_649813), and DmTMX3 (NP_648847). cRNAs were prepared using the mMESSAGE mMACHINE T7 ULTRA Transcription Kit (Thermo Fisher Scientific, #AM1345) according to the manual with the cDNA template which was cut with appropriate restriction enzymes at the 3’ end of the cDNA.
(§2) We minimised the use of X. laevis according to the UK Animals (Scientific Procedures) Act, 1986. […] Oocytes were defolliculated after collagenase treatment in Ca^2+-free standard oocyte saline (Ca^2+-free SOS). cRNAs of the nAChR subunits and co-factors mixed at a concentration of 0.1 mg/mL was injected into oocytes at a volume of 50 nL. Then the oocytes were incubated in the incubation medium (SOS supplemented with sodium pyruvate (Nacalai Tesque, #13058–12), penicillin-streptomycin (MilliporeSigma, #P4333), gentamycin (Nacalai Tesque, #16672–04), and 4% horse serum (Thermo Fisher Scientific, #26050–070) for 3−4 days prior to electrophysiology.
(§3) Each defolliculated X. laevis oocyte was secured in a Perspex recording chamber and perfused with the standard oocyte saline (SOS) containing 0.5 μM atropine (SOSA) at a flow rate of 7−10 mL/min [48]. Two glass electrodes filled with 2 M KCl were impaled into each oocyte and the membrane potential was clamped at -100 mV. […] The peak amplitude of the response was measured and analysed by pCLAMP (Molecular Devices, USA).
(§4) Y=Imax/1+10^(logEC50‐X)nH
(§5) Where Y is the normalised response, X is log[ligand (M)], EC50 is the half maximal concentration (M), Imax is the maximum normalised response and nH is the Hill coefficient.

Dα1/Dα2/Dα3/Dβ1 nAChR = biological target: T2, Dα1/Dα2/Dα3/Dβ1 nAChR (Drosophila melanogaster, UniProt P04755+P09478+P17644+Q9W3G6); assay: cell-based; parameters: species or system D. melanogaster; conditions: mean ± standard error (n = 5)
T2 construct: Dα1 (NP_524481); Dα2 (NP_524482); Dβ1 (NP_523927); expressed in transfected cells; host or cells: Xenopus laevis oocytes (cRNA injection)
Procedure: as §1, §2, §3, §4, §5

Dα1/Dα3/Dβ1 nAChR = biological target: T3, Dα1/Dα3/Dβ1 nAChR (Drosophila melanogaster, UniProt P04755+P09478+Q9W3G6); assay: cell-based; parameters: species or system D. melanogaster
T3 construct: Dα1 (NP_524481); Dβ1 (NP_523927); expressed in transfected cells; host or cells: Xenopus laevis oocytes (cRNA injection)
Procedure: as §1, §2, §3, §4, §5

[1] = biological target: Dα1/Dα2/Dα4/Dβ1/Dβ2 nAChR; conditions: mean ± standard error (n = 5); for Imax: normalised to maximum ACh response
Procedure: as §1, §2, §3, §4, §5

[2] = biological target: Dα1/Dα3/Dα4/Dβ1/Dβ2 nAChR; conditions: mean ± standard error (n = 5); for Imax: normalised to maximum ACh response
Procedure: as §1, §2, §3, §4, §5

[3] = biological target: Dα2/Dα3/Dα4/Dβ1/Dβ2 nAChR; conditions: mean ± standard error (n = 5); for Imax: normalised to maximum ACh response
Procedure: as §1, §2, §3, §4, §5

D. melanogaster larvae = assay: Pupariation rate assay; format: in vivo
Procedure: All flies were raised at 25°C under 12 h/12 h light/dark cycle. The animals were reared on standard fly food containing 5.5 g agar, 100 g glucose, 40 g dry yeast, 90 g cornflour, 3 mL propionic acid, and 3.5 mL 10% butyl p-hydroxybenzoate (Nacalai Tesque, Japan, #06327–15) in 70% ethanol per liter. The control strain was w^1118, and transgenic flies are as follows: UAS-nAChRα1 RNAi (#28688) was obtained from the Bloomington Drosophila Stock Center (BDSC); UAS-nAChRα2 RNAi (UAS-Dα2 RNAi, #10760), UAS-nAChRα3 RNAi (UAS-Dα3 RNAi, #101806); UAS-dicer2 (#60009) were obtained from the Vienna Drosophila Resource Center (VDRC); and UAS-mCD8::GFP (#108068) was obtained from Kyoto Stock Center. elav-Gal4 (3A3) was obtained from Michael B. O’Connor. nAChRα3-knock-in 2A-Gal4 (Dα3-knock-in T2A-Gal4) was generated by the CRISPR/Cas9 system as described in detail below.
Eggs were laid on grape juice plates with yeast paste at 25°C for 6 h. […] After a week of incubation at 25°C, pupal numbers were scored in each vial.

[4] = efficacy, mean ± standard error (n = 5)
[5] = normalised to maximum ACh response
[6] = mean ± standard error (n = 5), read-out: pEC50 (converted)
[7] = normalised to maximum ACh response, mean ± standard error (n = 5)
[8] = RNAi of Dα1 (pan-neuronal knockdown) vs control
[9] = RNAi of Dα2 (pan-neuronal knockdown) vs control

Row | Compound | Imax (Dα1/Dα3/Dβ1/Dβ2 nAChR; efficacy) | Imax (Dα1/Dα2/Dα3/Dβ1 nAChR; efficacy) | Imax (Dα1/Dα3/Dβ1 nAChR; [4]) | EC50 (Dα1/Dα3/Dβ1/Dβ2 nAChR) | Imax (Dα1/Dα3/Dβ1/Dβ2 nAChR; [5]) | EC50 (Dα1/Dα2/Dα3/Dβ1 nAChR) | Imax (Dα1/Dα2/Dα3/Dβ1 nAChR; [5]) | EC50 (Dα1/Dα3/Dβ1 nAChR; [6]) | Imax (Dα1/Dα3/Dβ1 nAChR; [7]) | pEC50 [1] | Imax [1] | pEC50 [2] | Imax [2] | pEC50 [3] | Imax [3] | toxicity in larvae, effect of RNAi (D. melanogaster larvae; [8]) | toxicity in larvae, effect of RNAi (D. melanogaster larvae; [9]) | also measured
1 | CC(=O)OCC[N+](C)(C)C [ACh, acetylcholine] | 1 | 1 | 1 | – | – | – | – | – | – | – | – | – | – | – | – | – | – | –
2 | CN/C(=N\[N+](=O)[O-])NCc1cnc(Cl)s1 [Clothianidin, clothianidin] | 0.684 | 0.817 | 0.627 | 39.8 nM | 0.684 ± 0.022 | 282 nM | 0.817 ± 0.024 | 63.1 nM | 0.627 ± 0.025 | 6.72 ± 0.09 | 1.001 ± 0.031 | 6.94 ± 0.06 | 0.425 ± 0.008 | 7.11 ± 0.12 | 0.912 ± 0.041 | reduced toxicity | reduced toxicity | Imax ([1]; listed as clothianidin): 1.001; Imax ([2]; listed as clothianidin): 0.425
3 | O=[N+]([O-])NC1=NCCN1Cc1ccc(Cl)nc1 [Imidacloprid, imidacloprid] | 0.330 | 0.094 | 0.170 | 30.2 nM | 0.330 ± 0.018 | 83.2 nM | 0.094 ± 0.007 | 26.3 nM | 0.170 ± 0.020 | 6.48 ± 0.28 | 0.172 ± 0.020 | 7.30 ± 0.17 | 0.101 ± 0.008 | 7.40 ± 0.20 | 0.027 ± 0.002 | reduced toxicity | reduced toxicity | Imax ([3]; listed as imidacloprid): 0.027
4 | N#C/N=C1\SCCN1Cc1ccc(Cl)nc1 [Thiacloprid, thiacloprid] | 0.107 | 0.047 | 0.047 | 10 nM | 0.107 ± 0.015 | 18.6 nM | 0.047 ± 0.004 | – | 0.047 ± 0.006 | 7.01 ± 0.19 | 0.066 ± 0.007 | 7.96 ± 0.10 | 0.026 ± 0.001 | 7.99 ± 0.20 | 0.018 ± 0.002 | reduced toxicity | reduced toxicity | EC50 (Dα1/Dα3/Dβ1 nAChR; read-out: EC50): 8.51 nM; Imax ([3]; listed as thiacloprid): 0.018
